Source: patent US8487130B2, “Menthylcarboxamides and their use as cooling agents” (International Flavors & Fragrances Inc., priority 2009, dated 2013)
“Also recorded” adds a separate entry of the source.

Assays:
Type in all cases: in vivo
[1] = Flavor evaluation, tasted in water; conditions: for flavor evaluation: cooling: 40 ppm in water
[2] = Flavor evaluation, tasted in water; conditions: 40 ppm in water
Source text: Flavor Evaluation of Structure I
Flavor evaluation of the (2S,5R)—N-[4-(4-Amino-4-oxobutyl)phenyl]-5-methyl-2-(propan-2-yl)cyclohexanecarboxamide in water at concentration 40 ppm: […]

[3] = tested on: descriptive analysis panel; experiment: Chewing gum cooling evaluation by descriptive analysis panel; conditions: gum blended with Structure I
Procedure: The following gum base formulation was prepared: [table] Structure I by itself and in separate mixtures with monomenthyl glutarate, 2-isopropyl-N,2,3-trimethylbutyramid, N-ethyl-p-menthanecarboxamide and menthyl acetoacetate at levels detailed in the Tables below was blended with the gum base in a Sigma mixer. The resultant chewing gum blend was then manufactured into strips 1 inch in width and 0.1 inches in thickness. These strips were cut into lengths of 3 inches each. […] Samples were profiled by a highly trained descriptive analysis panel. The ballot consisted of the following terms: Total impact, total mint, cooling-mouth closed, cooling-breath in, nasal cooling—breath in, throat irritation, bitterness, tongue irritation, numbing. Each attribute was rated at discrete time points including 5 secs, 30 secs, 90 secs, 3 mins, 5 mins, 7 mins, 10 mins, 15 mins, 20 mins, and 30 mins. The following table details the panelist's results for the combination of Structure I with monomenthyl glutarate, 2-isopropyl-N,2,3-trimethylbutyramid, N-ethyl-p-menthanecarboxamide and menthyl acetoacetate at 3 minutes, 8 minutes, 20 minutes and 30 minute, 40 minute and 50 minute intervals. The amounts are listed in weight percent.

What does the source list for `CC(C)[C@@H]1CC[C@@H](C)CC1C(=O)Nc1ccc(CCCC(N)=O)cc1` (stereo partly drawn) [(2S,5R)—N-[4-(4-Amino-4-oxobutyl)phenyl]-5-methyl-2-(propan-2-yl)cyclohexanecarboxamide]?
flavor evaluation: cooling ([1]; 30 minutes): localized on tip; flavor evaluation: cooling ([1]; ~3.5 minutes): beginning to build; flavor evaluation: onset and character of cooling [2]: Late onset of cooling after expectorating, peppery on tip of tongue and back of throat, cooling on tip, irritating on back of throat—sore throat, cooling building on tip of tongue, peppery in esophagus; flavor evaluation: taste [2]: Umami! Ribotide-like. Umami upfront; flavor evaluation: cooling ([2]; after 20 minutes): Still going strong after 20 minutes and cooling on gums; flavor evaluation: cooling ([2]; ~40 sec): cooling just beginning, throat irritation, slight numbing on tip of tongue, mouth-watering, mouth coating—all over; flavor evaluation: cooling ([2]; ~7 minutes): continuing to build

With `CC(C)[C@@H]1CC[C@@H](C)CC1C(=O)Nc1ccc(CC(N)=O)cc1` (stereo partly drawn) [Structure I, (2S,5R)—N-[4-(2-Amino-2-oxoethyl)phenyl]-5-methyl-2-(propan-2-yl)cyclohexanecarboxamide] as the molecule, how does the duration of cooling ([1]; 1 ppm in water) read?
The duration of cooling was 30 min.

And the “flavor properties (cooling) when tasted in water” value ([1]; 1 ppm in water)?
The value was “clean with slight cooling up front that builds with time to moderate level”.

What about the “flavor properties (cooling) when tasted in water” value ([1]; 10 ppm in water) of the same molecule?
Its value is “moderate throat and mouth cooling that lingers with some bitter notes in background”.

What about the duration of cooling ([1]; 10 ppm in water, with breath in) of the same molecule?
Its duration of cooling is 30 min.

And the panelist comment ([3]; Panelist 1, 11:05 (start 11:04))?
The panelist comment was “Bitter, Brown, Sweet, slightly Vanilla”.

And the panelist comment ([3]; Panelist 1, 11:06 (start 11:04))?
Its panelist comment is “Start to notice cooling”.

What about the panelist comment ([3]; Panelist 1, 11:08 (start 11:04)) of the same molecule?
Its panelist comment is “Moderate cooling”.

What about the panelist comment ([3]; Panelist 1, 11:11 (start 11:04)) of the same molecule?
Its panelist comment is “Moderate cooling in mouth and now back of the throat; nice on breath in; also recorded: Continued long lasting cooling”.

And the panelist comment ([3]; Panelist 1, 11:15 (start 11:04))?
The panelist comment was “Slight cooling moving to the front of the mouth”.

What about the panelist comment ([3]; Panelist 1, 11:18 (start 11:04)) of the same molecule?
The panelist comment was “Stable cooling all over, nice level”.

And the panelist comment ([3]; Panelist 1, 11:22 (start 11:04))?
The panelist comment was “Long lasting”.

What about the panelist comment ([3]; Panelist 2, 11:04 (start)) of the same molecule?
The panelist comment was “Very sweet, brown”.

And the panelist comment ([3]; Panelist 2, 11:07 (start 11:04))?
Its panelist comment is “Started to notice cooling on breath and tip of the tongue”.

What about the panelist comment ([3]; Panelist 2, 11:09 (start 11:04)) of the same molecule?
The panelist comment was “Started to notice on back of throat, continued to build in the rest of the mouth”.

And the panelist comment ([3]; Panelist 2, 11:11 (start 11:04))?
Its panelist comment is “Cooling consistent throughout mouth, slight irritation on the back of the throat”.

And the panelist comment ([3]; Panelist 2, 11:15 (start 11:04))?
Its panelist comment is “Cooling level the same”.

And the panelist comment ([3]; Panelist 2, 11:24 (start 11:04))?
Its panelist comment is “Still getting a good amount of cooling”.

What about the panelist comment ([3]; Panelist 2, 12:07 (start 11:04)) of the same molecule?
Its panelist comment is “Cooling is gone”.

And the panelist comment ([3]; Panelist 3, 11:07 (start 11:04))?
The panelist comment was “Cooling on the back of the throat”.

And the panelist comment ([3]; Panelist 3, 11:14 (start 11:04))?
The panelist comment was “Concentrated on the back of the throat; irritating”.

And the panelist comment ([3]; Panelist 3, 11:22 (start 11:04))?
Its panelist comment is “Full cooling after 20 min”.

What about the panelist comment ([3]; Panelist 4, 11:07 (start 11:04)) of the same molecule?
Its panelist comment is “Cooling perception begins (mild)”.

What about the panelist comment ([3]; Panelist 4, 11:09 (start 11:04)) of the same molecule?
Its panelist comment is “Cooling pleasant, builds to moderate cooling on the front/tip of tongue”.

What about the panelist comment ([3]; Panelist 4, 11:11 (start 11:04)) of the same molecule?
The panelist comment was “Intensity max reached”.

And the panelist comment ([3]; Panelist 4, 11:14 (start 11:04))?
Its panelist comment is “Cooling plateau, maintained. Delocalized all over mouth”.

And the panelist comment ([3]; Panelist 4, 11:19 (start 11:04))?
Its panelist comment is “Remains intense”.

And the panelist comment ([3]; Panelist 4, 11:20 (start 11:04))?
Its panelist comment is “Moves to throat (mild) very intense on tip of the tongue and center”.

And the panelist comment ([3]; Panelist 4, 11:24 (start 11:04))?
The panelist comment was “Still cooling”.

And the panelist comment ([3]; Panelist 4, 12:00 (start 11:04))?
The panelist comment was “Cooling remains”.

What about the panelist comment ([3]; Panelist 4, 12:15 (start 11:04)) of the same molecule?
The panelist comment was “Cooling diminished significantly”.
